Measured values as given in ChEMBL document CHEMBL1201862, “PubChem BioAssay data set” (2004).
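These data come from cells grown in 96-well plates and exposed to compound for 48 hours at five concentrations. At the GI50, growth is halved.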 The source made the active and inactive calls. Rule as the data show it: active = GI50 up to about 1.1 µM and inactive = higher.

Experiments:
Test in all cases: NCI-60 cell line screen, 48 h
[1] = system: HT-29
[2] = system: OVCAR-3
[3] = system: SF-295
[4] = system: SNB-75
[5] = system: UACC-257
[6] = system: OVCAR-8
[7] = system: LXFL 529
[8] = system: HOP-62
[9] = system: MOLT-4
[10] = system: COLO 205
[11] = system: CAKI-1
[12] = system: ACHN
[13] = system: HCT-15

| SMILES | GI50 [1] | GI50 [2] | GI50 [3] | GI50 [4] | GI50 [5] | GI50 [6] | GI50 [7] | GI50 [8] | GI50 [9] | GI50 [10] | GI50 [11] | GI50 [12] | GI50 [13] [µM] |
| --- | --- | --- | --- | --- | --- | --- | --- | --- | --- | --- | --- | --- | --- |
| COC1=CC(=O)C2C(C1=O)C(c1ccc(OC)c(OC)c1)[C@H]2C (stereo not given in full) | 31.8 µM (inactive) | 19.6 µM (inactive) | > 100 µM (inactive) | > 100 µM (inactive) | 18.6 µM (inactive) | 20.6 µM (inactive) | 17.3 µM (inactive) | > 100 µM (inactive) | 7.71 µM (inactive) | 19.1 µM (inactive) | 11.5 µM (inactive) | 18.7 µM (inactive) | 18.2 |
| CCCCCCCCCCCC[N+]12CC[N+](CCN)(CC1)CC2 | 67.8 µM (inactive) | > 100 µM (inactive) | 51.8 µM (inactive) | 28.2 µM (inactive) | > 100 µM (inactive) | > 100 µM (inactive) | 81.7 µM (inactive) | 68.5 µM (inactive) | > 100 µM (inactive) | 39.3 µM (inactive) | 19.2 µM (inactive) | > 100 µM (inactive) | – |
| CN1CCC(c2c(O)cc(O)c3c(=O)cc(-c4ccccc4Cl)oc23)C(O)C1 (stereo not given) | 0.156 µM (active) | – | < 0.0253 µM (active) | 0.0219 µM (active) | 0.0627 µM (active) | 0.0352 µM (active) | 0.0769 µM (active) | 0.018 µM (active) | < 0.0108 µM (active) | 0.0811 µM (active) | 0.0628 µM (active) | 0.048 µM (active) | 0.057 |
| CCOc1ccc(/C=C/c2cc(OC)c(OC)c(OC)c2)cc1 | 0.653 µM (active) | 0.596 µM (active) | 0.346 µM (active) | 0.701 µM (active) | 0.658 µM (active) | 3.9 µM (inactive) | 0.809 µM (active) | 0.392 µM (active) | 1.37 µM (inactive) | 0.635 µM (active) | 0.564 µM (active) | 1.56 µM (inactive) | 0.869 |
